According to paper PMC8708872, “Discovery of a Novel Template, 7-Substituted 7-Deaza-4′-Thioadenosine Derivatives as Multi-Kinase Inhibitors” (Pharmaceuticals, 2021):
pIC50: −log10 of the molar value.

What was measured:
CYP3A4 = molecular target: T1, CYP3A4 (Homo sapiens, UniProt P08684); assay: CYP inhibition assay; assay type: in vitro ADME; details: human liver microsomes
T1 construct: Human liver microsomes (0.25 mg/mL); from tissue; host or cells: human liver microsomes

cancer cells = assay: Antiproliferative activity against cancer cells (six lines, SRB); assay type: cell-based; details: Homo sapiens; range over the six cancer cell lines of Table 1
Protocol: (§1) Human lung cancer cells (A549), colorectal cancer (HCT116) cells, breast cancer cells (MDA-MB-231), liver cancer cells (SK-HEP-1), and prostate cancer cells (PC-3) were purchased from the American Type Culture Collection (Manassas, VA, USA). Human gastric cancer cells (SNU-638) were purchased from the Korean Cell Line Bank (Seoul, Korea). Cells were cultured in medium (Dulbecco’s modified Eagle’s medium for MDA-MB-231 and SK-HEP-1 cells; Roswell Park Memorial Institute 1640 for A549, HCT116, SNU-638, PC-3 cells) supplemented with penicillin-streptomycin and 10% fetal bovine serum at 37 °C in a humidified incubator with 5% carbon dioxide. Cells were seeded at a density of 4–7 × 10^4 cells/mL in 96-well culture plates, and then treated with indicated compounds for 72 h. At the end of the experiment, cells were fixed with 10% trichloroacetic acid (TCA) solution and subjected to sulforhodamine B (SRB) assay to determine cell proliferation. The percentage of cell proliferation was calculated with the following formula:Cell proliferation (%) = 100 × [(A treated − A zero day)/(A control − A zero day)], where A is the average absorbance. The IC50 values were calculated through non-linear regression analysis using TableCurve 2D v5.01 (Systat Software Inc., San Jose, CA, USA). All experiments were performed in triplicate and data shown are representative of two or three independent experiments.

MDA-MB-231 = assay: SRB cell proliferation inhibition assay; assay type: cell-based; details: human breast cancer cells, 72 h
Protocol: as §1

PC-3 = assay: SRB cell proliferation inhibition assay; assay type: cell-based; details: human prostate cancer cells, 72 h
Protocol: as §1

A549 = assay: SRB cell proliferation inhibition assay; assay type: cell-based; details: human lung cancer cells, 72 h
Protocol: as §1

HCT116 = assay: SRB cell proliferation inhibition assay; assay type: cell-based; details: HCT-116, human colon cancer cells, 72 h
Protocol: as §1

SK-HEP-1 = assay: SRB cell proliferation inhibition assay; assay type: cell-based; details: SK-HEP1, human liver cancer cells, 72 h
Protocol: as §1

SNU638 = assay: SRB cell proliferation inhibition assay; assay type: cell-based; details: SNU-638, human stomach cancer cells, 72 h
Protocol: as §1

T1 sequence (P08684 whole entry): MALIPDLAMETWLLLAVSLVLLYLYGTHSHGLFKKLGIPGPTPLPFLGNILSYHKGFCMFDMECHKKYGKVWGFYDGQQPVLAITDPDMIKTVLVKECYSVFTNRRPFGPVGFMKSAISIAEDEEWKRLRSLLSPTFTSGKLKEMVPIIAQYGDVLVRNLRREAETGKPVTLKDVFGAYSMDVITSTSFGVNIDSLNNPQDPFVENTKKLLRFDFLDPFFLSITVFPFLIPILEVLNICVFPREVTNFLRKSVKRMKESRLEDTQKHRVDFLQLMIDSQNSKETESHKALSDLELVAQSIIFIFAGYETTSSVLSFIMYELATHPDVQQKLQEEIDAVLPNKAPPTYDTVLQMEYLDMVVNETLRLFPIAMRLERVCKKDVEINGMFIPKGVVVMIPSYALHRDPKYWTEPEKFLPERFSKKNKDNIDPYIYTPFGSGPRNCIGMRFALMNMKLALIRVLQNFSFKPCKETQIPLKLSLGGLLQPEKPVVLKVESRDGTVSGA

pIC50 (CYP3A4): < 4.70
pIC50 (cancer cells): 7.22 to 8.40
pIC50 (MDA-MB-231): 7.30
pIC50 (PC-3): 8.40
pIC50 (A549): 7.22
pIC50 (HCT116): 7.52
pIC50 (SK-HEP-1): 7.30
pIC50 (SNU638): 7.52
SMILES: C#Cc1cn([C@@H]2S[C@H](CO)[C@@H](O)[C@H]2O)c2ncnc(N)c12 [Compound 1g, (2R,3R,4S,5R)-2-(4-Amino-5-ethynyl-7H-pyrrolo[2,3-d]pyrimidin-7-yl)-5-(hydroxymethyl)tetrahydrothiophene-3,4-diol]
